Assay: Human HepG2 cell viability assay in 384 well format
Type: toxicity, cell-based
Design: dose 125 nL, time 70.5 hour; concentration not given beside the values
Conditions: HepG2 cells, read-out: Inhibition

Row | SMILES | cytotoxicity at 70.5 h [%]
1 | COc1ccccc1C(=O)Nc1c(F)c(C(=O)NC2CCCC2)nn1C | -7.93
2 | CC(C)NC(=O)c1nn(C)c(NC(=O)Cc2ccccc2)c1F | -11.4
3 | COc1ccccc1C(=O)Nc1c(F)c(C(=O)NCCC(C)C)nn1C | 25.3
4 | Cc1nc(N2CCCC2)ncc1-c1cc(O)nc(N2CCN(C)CC2)n1 | -2.96
5 | CCC1=NC(SCC(=O)c2ccc(C)cc2)c2cc(CC)sc2N1 (stereo not drawn) | -15.9
6 | CCC1=NC(SCC(=O)c2ccc(Cl)cc2)c2cc(CC)sc2N1 (stereo not drawn) | -11
7 | O=S(=O)(Nc1ccc(Oc2ccc3c(c2)OCO3)cc1)N1CCCCC1 | 23
8 | Cn1ccnc1SCC(=O)NCc1ccc2c(c1)CCC(=O)N2 | 2.79
9 | COc1ccc(C2=Nn3c(CCN)nnc3-c3ccccc3C2)cc1 | 8.3
10 | COc1ccc(C2=Nn3c(CCCN)nnc3-c3ccccc3C2)cc1 | 4.99
11 | O=C(NCc1ccco1)c1[nH]nc2c1CS(=O)(=O)CC2 | 22.5
12 | CCn1ncc(CNc2[nH]cnc3nncc2-3)c1C | -13.8
13 | Cc1nc2[nH]cnc(Nc3cnn(C)c3)c-2n1 | 0.28
14 | Cc1nc2[nH]cnc(NCCCN3CCOCC3)c-2n1 | -6.34
15 | CC(Nc1ncnc2c1NC(=O)CN2)c1ccccn1 (stereo not drawn) | -13.6
16 | O=C1CNc2ncnc(Nc3cnn(Cc4ccccc4)c3)c2N1 | 27
17 | O=C1CNc2ncnc(Nc3cnn(Cc4ccc(F)cc4)c3)c2N1 | -12.2
18 | CC(Nc1ncnc2c1NC(=O)CN2)c1ccc2c(c1)OCO2 (stereo not drawn) | -18.5
19 | O=C1CNc2ncnc(Nc3cccc(Cn4cccn4)c3)c2N1 | -6.61
20 | COc1ccccc1CNc1ncnc2c1NC(=O)CN2 | -6.12
21 | CC(C)c1noc(C2CCN(C(=O)C3CCCO3)CC2)n1 (stereo not drawn) | -11.9
22 | O=C1c2cnc(N3CCOCC3)nc2CN1Cc1cccc(F)c1 | -6.18
23 | CNc1ncc2c(n1)CN(C1CCCC1)C2=O | -9.4
24 | CN(C)c1ncc2c(n1)CN(C1CCSCC1)C2=O | 22.1

Row | SMILES | cytotoxicity at 70.5 h [%]
25 | O=C1c2cnc(N3CCCCC3)nc2CN1c1ccc2c(c1)OCO2 | 16.4
26 | CCCc1noc(C2CCCCN2C(=O)CCc2cnn(C)c2)n1 (stereo not drawn) | -0.695
27 | c1ccc2c(N3CCCCC3)cnnc2c1 | -6.45
28 | c1ccc2c(N3CCOCC3)cnnc2c1 | -8.59
29 | CNc1ncc2c(n1)CN(CCc1ccc(C)cc1)C2=O | -3.63
30 | COc1ccc(N2Cc3nc(N)ncc3C2=O)cc1Cl | -3.37
31 | COc1ccc(CCNC(=O)Cn2ncc3c2c(C)nn3C)cc1 | -12.7
32 | CCc1noc(C2CCCCN2C(=O)c2cc(C)on2)n1 (stereo not drawn) | -6.42
33 | CCn1nc(C)c2c1cnn2CC(=O)Nc1ccc(OC)cc1C | -1.46
34 | CCC(C)NC(=O)Cn1ncc2c1c(C)nn2CC (stereo not drawn) | 22.8
35 | Cc1nn(C)c2cn(CC(=O)N3CCN(c4ccccn4)CC3)nc12 | 5.73
36 | COc1ccccc1CNC(=O)C(C)n1cc2c(n1)c(C)nn2C (stereo not drawn) | -6.09
37 | CCN(CC)c1nc(Nc2cccc(C(=O)O)c2)nc2ccccc12 | -11.2
38 | COc1ccc(CNc2cc3[nH]c(O)nc3cc2C)cc1 | -5.05
39 | Cc1nc(N2CCC(C)CC2)ncc1-c1cc(O)nc(N2CCCC2)n1 | 1.46
40 | CC(C)CN1Cc2nc(N)ncc2C1=O | -10.7
41 | COc1ccc(N2Cc3nc(N4CCCC4)ncc3C2=O)cc1Cl | 1.18
42 | Cc1ccccc1CNC(=O)Cn1ncc2c1c(C)nn2C | -9.91
43 | Clc1ccc2nncc(N3CCCCC3)c2c1 | -10.7
44 | CCN1CCCC(O)(CNCc2ccc3c(c2)OCO3)C1 (stereo not drawn) | -10.3
45 | CCN1CCN(C(=O)Cn2ncc3c2c(C)nn3C(C)C)CC1 | -4.28
46 | Cc1nn(C)c2cn(CC(=O)N3CCc4ccccc4C3)nc12 | 1.13
47 | COCCNC(=O)Cn1cc2c(n1)c(C)nn2C(C)C | -5.84
48 | CCN1CCCC(O)(CN(C)Cc2c(C)nn(C)c2C)C1 (stereo not drawn) | 2.33

Row | SMILES | cytotoxicity at 70.5 h [%]
49 | N#Cc1c(N2CCOCC2)nsc1-c1cccnc1 | -4.2
50 | CCn1cc(N2Cc3nc(N4CCC(C)CC4)ncc3C2=O)cn1 | -8.76
51 | CCN1CCN(c2nsc(-c3cccnc3)c2C#N)CC1 | -5.08
52 | COc1ccc2nnc(C(=O)NC3CCCC3)nc2c1 | -4.15
53 | COC(=O)C1CCN(C(=O)c2nnc3ccc(Cl)cc3n2)CC1 | -7.04
54 | CC1CCN(c2ncc3c(n2)CN(C2CCS(=O)(=O)C2)C3=O)CC1 (stereo not drawn) | 29
55 | Cc1cccc(N2Cc3nc(N4CCC(C)CC4)ncc3C2=O)c1 | -5.12
56 | CCN1CCN(C(=O)c2cc(NC(=O)c3ccccc3)n(C)n2)CC1 | -3.8
57 | Cc1nn(C)c(C)c1CNC(=O)c1cc(NC(=O)C2CC2)n(C)n1 | -7.51
58 | Cn1nc(C(=O)NC2CCCCC2)cc1NC(=O)C1CC1 | -5.38
59 | Cn1nc(C(=O)NC2CCCC2)cc1NC(=O)C1CC1 | -8.78
60 | Cn1nc(C(=O)NC2CC2)cc1NC(=O)C1CC1 | -7.34
61 | CCCN1CCN(c2nc(N)nc3c2nc(C)n3C)CC1 | 20.9
62 | CC(=O)c1ccc(Nc2nc(N)nc3c2nc(C)n3C)cc1 | 4.46
63 | Cc1nc2c(Nc3ccc(C#N)cc3)nc(N)nc2n1C | -1.73
64 | O=C(CCn1ncc2c(Cl)cccc21)NCCCn1cccn1 | -5.51
65 | Cc1ccsc1CN(CCCO)Cc1nc2ccccc2[nH]1 | -1.23
66 | COCC(=O)N[C@@H]1CN(Cc2ccc3c(c2)OCCO3)C[C@H]1O | 9.74
67 | COCCNc1cccc(C2CCCN2)n1 (stereo not drawn) | -6.3
68 | O=C(CCN1CCc2ccccc21)N1C[C@@H](O)[C@H](N2CCOCC2)C1 | -3
69 | CC1(C2CCN(CCCC(=O)O)CC2)CN(Cc2ccccc2)C(=O)O1 (stereo not drawn) | 2.48
70 | CN(C)C(=O)CN1CCC2(CC1)C[C@@H](O)[C@H](c1ccccc1)NC2=O | -8.01
71 | Cc1cccnc1CN1CC[C@@](C)(O)[C@H](Oc2ccccc2)C1 | -7.26
72 | O[C@H]1CN(Cc2cc3ccccc3o2)CC[C@@]12CCCO2 | -8.98

Row | SMILES | cytotoxicity at 70.5 h [%]
73 | CNc1cc(C2CN(CC(=O)N(C)C)CCO2)nc(C)n1 (stereo not drawn) | -5.66
74 | Cc1cnc(C2(C)CCN(Cc3cscn3)CC2)s1 | -6.19
75 | CCS(=O)(=O)N1CCCC(c2ccnc(N(C)C)c2)C1 (stereo not drawn) | -6.79
76 | CN(C)c1nccc(C2CN(C(=O)CO)C2)n1 | -4.15
77 | CC(=O)N1CCc2nnc(C3CCCCN3CC3CCCCC3)n2CC1 (stereo not drawn) | 12.6
78 | O=C(O)c1cccc(CN2CCC(c3ccnc4ccnn34)CC2)c1 | -8.88
79 | Cc1cc(C2CCCCN2C(=O)c2ccsc2)nc2nccn12 (stereo not drawn) | 6.22
80 | Cc1cc(C2CCCCN2C(=O)c2cccn2C)nc2nccn12 (stereo not drawn) | 4.86
81 | O=C(NCCNC1CCCC1)c1cccs1 | -6.72
82 | COCC(=O)N1CCCC(c2csc(NC(C)=O)n2)C1 (stereo not drawn) | -8.74
83 | CC(=O)N1CCOC(c2nc(N(C)C)ncc2-c2cccc(F)c2)C1 (stereo not drawn) | -7.24
84 | Cc1nccc(N2CCCC(C)(C(=O)NC3CCCC3)C2)n1 (stereo not drawn) | -15.1
85 | Fc1ccccc1-c1nccnc1C1CCCNC1 (stereo not drawn) | -8.72
86 | CNc1cc(C2CCCN(S(=O)(=O)c3cn[nH]c3)C2)ccn1 (stereo not drawn) | -16.1
87 | Cc1c[nH]c(C2COCCN2S(=O)(=O)c2cn[nH]c2)n1 (stereo not drawn) | -12.8
88 | CS(=O)(=O)N1CCCC1Cn1cccn1 (stereo not drawn) | 2.44
89 | CC1(C(=O)NC2CCCC2)CCCN(c2cnccn2)C1 (stereo not drawn) | -6.96
90 | CN(C)c1nccc(C2CCCN2S(=O)(=O)c2cn(C)cn2)n1 (stereo not drawn) | -15.2
91 | O=C1CO[C@H]2CN(Cc3cccc4[nH]ccc34)C[C@@H]2N1C1CCOCC1 | 5.48
92 | Cc1ccc(Nc2nccc(C3CN(C(C)C)C3)n2)nc1 | 42.5
93 | O=C(Nc1ccccn1)C1CCN(C(=O)COc2ccccc2F)C1 (stereo not drawn) | 18.6
94 | CN1CCNC(Cc2ccc(-c3ccccc3)cc2)C1=O (stereo not drawn) | 21.5
95 | CNc1cc(C2CCCN2S(=O)(=O)c2cccc(F)c2)ccn1 (stereo not drawn) | 14.1
96 | Cn1nccc1C(=O)N1CCCC1c1[nH]ncc1C(N)=O (stereo not drawn) | -6.47

Row | SMILES | cytotoxicity at 70.5 h [%]
97 | Cc1sc2c(C3CCCN(S(C)(=O)=O)C3)nc(C)n2c1C (stereo not drawn) | -9.83
98 | Fc1ccc(N2CCOC(Cc3cccnc3)C2)cc1 (stereo not drawn) | -9.3
99 | Cc1cc(CCC(=O)O)nc(C2CCCN2c2ccnc(C)n2)n1 (stereo not drawn) | -6.16
100 | Cc1cc(N2CCC(c3n[nH]c4nccnc34)CC2)ncn1 | 19
101 | COCCN1CCCC(Cc2ccc(N3CCOCC3)nn2)C1 (stereo not drawn) | -7.53
102 | Cn1cc(C(=O)N2CCCC2c2[nH]ncc2C(N)=O)cn1 (stereo not drawn) | -5.5
103 | COCCn1cnnc1C1CCCN(c2cnccn2)C1 (stereo not drawn) | -5.97
104 | Cc1ccnn1CCC(=O)N1CCC(c2cnccn2)CC1 | -7.09
105 | CCN(Cc1ccncc1)CC1(O)CCN(C(=O)c2cccc(C)n2)C1 (stereo not drawn) | -4.96
106 | CNc1cncc(C2CCCN2S(=O)(=O)c2ccc(F)cc2)n1 (stereo not drawn) | -2.18
107 | Cc1cc(C)nc(C2CCN(C(=O)c3cnc(N(C)C)nc3)C2)n1 (stereo not drawn) | -4.6
108 | Cn1c(CN2CCOC(CCc3ccncn3)C2)nc2ccccc21 (stereo not drawn) | -3.77
109 | Cc1ccc([C@@]2(O)CC[C@@H]3CN(S(=O)(=O)c4cn(C)nc4C)C[C@@H]32)cc1 | -2.34
110 | O=C(NC1CCCC1)c1ccc(C2CCCNC2)nc1 (stereo not drawn) | 9.52
111 | O=C(NCCO)C1(Cc2ccccc2-c2cccnc2)CCOCC1 | -10.7
112 | Cc1nc(C2(O)CCCNCC2)sc1CCOc1ccccc1F (stereo not drawn) | 2.34
113 | CN(C)c1ncc(-c2cccc(F)c2)c(C2CNCCO2)n1 (stereo not drawn) | -5.48
114 | O=S(=O)(N1CCCC1)N1C[C@@H](c2cccc(F)c2)[C@@H]2NCCCCC[C@H]21 | -6.83
115 | Cc1noc(C)c1-c1nc(C2CCCNC2)ccc1CO (stereo not drawn) | -5.83
116 | CN(C)C(=O)c1ccc(C2CCCNC2)nc1 (stereo not drawn) | -6.57
117 | COc1ncc(CN(CCCN2CCOCC2)Cc2ccc(C)o2)cn1 | -4.04
118 | O=C(CN1CCCCC1)N1CCC(c2cc(=O)n3c(n2)CCCCC3)C1 (stereo not drawn) | -1.74

From ChEMBL document CHEMBL3507680, “University of Dundee, Gates Library screen for HepG2 cell viability”
